Among the data in ChEMBL document CHEMBL1159099, “Structure and in vitro antitumor activity evaluation of brominated diterpenes from the red alga Sphaerococcus coronopifolius” (Bioorg Med Chem, 2010) are IC50 and inhibition values, retold here.

Calls of active or inactive are those of the source. The calls are words filed in the database; no cut-off is given here.

For assay [1], the system named is PC-3. Briefly: Growth inhibition of human apoptosis-sensitive PC3 cells after 72 hrs by MTT assay. The class given is functional, cell-based. Particulars: PC-3, 72 h.
Assay [2] can be described thus: Growth inhibition of human apoptosis-resistant OE21 cells after 72 hrs by MTT assay. The class given is functional, cell-based. Particulars: OE21, 72 h. In general terms: Formazan colour is commonly taken as a measure of viable cells.
A short description of assay [3]: Growth inhibition of human apoptosis-resistant U373 cells after 72 hrs by MTT assay. Particulars: U373 MG. It is filed as functional, cell-based, U-373MG ATCC.
For assay [4], the system named is SK-MEL-28. Briefly: Growth inhibition of human apoptosis-resistant SK-MEL-28 cells after 72 hrs by MTT assay. The note with it: SK-MEL-28, 72 h. It is filed as functional, cell-based.
The test system of assay [5] is A549. Briefly: Growth inhibition of human apoptosis-resistant A549 cells after 72 hrs by MTT assay. It is filed as functional, cell-based. The note with it: A549, 72 h.
Assay [6] deals with LoVo. Briefly: Growth inhibition of human apoptosis-sensitive LoVo cells after 72 hrs by MTT assay. It is filed as functional, cell-based.
In assay [7] the test system is U-373MG ATCC. Kind of assay: Cytostatic effect against human apoptosis-resistant U373 cells at 7 uM assessed as induction of vacuolization after 72 hrs by computer-assisted phase contrast microscopy. The class given is functional, cell-based.
For assay [8], the system named is U-373MG ATCC. Briefly: Cytostatic effect against human apoptosis-resistant U373 cells assessed as increase in mitosis duration at 16 uM after 72 hrs by computer-assisted phase contrast microscopy. The class given is functional, cell-based.
The subject of assay [9] is U-373MG ATCC. Briefly: Cytostatic effect against human apoptosis-resistant U373 cells assessed as inhibition of cell entry into mitosis at 3 uM after 72 hrs by computer-assisted phase contrast microscopy. It is filed as functional, cell-based.

Usually IC50 stands for the concentration that gives 50% inhibition. Consider `CC(=O)[C@H]1[C@@H]2[C@H]3CC[C@@H](C(C)C)[C@]3(C)CC[C@]2(C)[C@@H](Br)C[C@@H]1O` [CORONONE], for which the IC50 in assay [1] amounted to 30 µM; in assay [2], 30 µM; in assay [3], 31 µM; in [4], 38 µM; in assay [5] it was 42 µM; in assay [6] it was 28 µM.

For `CC(C)[C@@H]1CC=C[C@H]2[C@H]3[C@](C)(CC[C@]12CBr)[C@@H](O)CC(=O)[C@@]3(C)O`, the inhibition result in assay [7] was “Active”. Further, the IC50 amounted to 8.1 µM in [1]; 8.4 µM in [2]; 7.2 µM in [3]; 21 µM in [4]; 18 µM in assay [5]; 5.3 µM in [6].

On to `CC(C)[C@@H]1CC[C@H](O)[C@H]2[C@H]3[C@](C)(CC[C@@]21CBr)[C@@H](Br)CC[C@@]3(C)O`, for which the IC50 came out at 25 µM in assay [1]; 20 µM in assay [2]; 25 µM in assay [3]; 26 µM in assay [4]; 28.6 µM in assay [5]; 23 µM in [6].

As to `CC(C)[C@@H]1C[C@@H]2C[C@@]13CC[C@]1(C)[C@@H](Br)CC[C@@](C)(O)[C@H]1[C@@H]3[C@H]2O` [BROMOTETRASPHAEROL], the IC50 came to 30 µM in assay [1]; 33 µM in [2]; 34 µM in assay [3]; 43 µM in assay [4]; 38 µM in assay [5]; 26 µM in [6].

Consider `CC(C)[C@@H]1C=C[C@H](O)[C@H]2[C@H]3[C@](C)(CC[C@@]21CBr)[C@@H](Br)CC[C@@]3(C)O` [BROMOSPHAERODIOL], for which the IC50 in assay [1] is 26 µM; in assay [2], 15 µM; in assay [3], 22 µM; in assay [4] it was 31 µM; in assay [5], 24 µM; in assay [6] it was 20 µM.

Consider `C=C1CC[C@@H]2[C@H]([C@@H]3[C@H](C)CC[C@H]13)C2(C)C`, for which the IC50 in [1] was 35 µM; in [2] it was 83 µM; in [3], 71 µM; in assay [4], > 100 µM; in assay [5] it was 79 µM; in assay [6] it was 63 µM.

In the case of `C=C1CC[C@@]2(C)[C@H](/C=C/CC[C@H]1C(C)C)[C@](C)(O)[C@H](O)C[C@@H]2Br`, the IC50 in assay [1] was determined as 48 µM; in assay [2], 33 µM; in [3], 60 µM; in assay [4], 62 µM; in [5] it was 64 µM; in assay [6], 24 µM.

For the compound `CC(C)[C@@H]1CC=C[C@H]2[C@@H]3[C@](C)(O)[C@@H](O)C[C@H](Br)[C@@]3(C)CC[C@]12CBr`, the IC50 in [1] was 12 µM; in assay [2], 19 µM; in assay [3], 16 µM; in assay [4], 22 µM; in assay [5], 19 µM; in assay [6], 9 µM. Further, the inhibition entry in assay [8] was “Active”.

With `CC(C)[C@@H]1CC=C[C@H]2[C@H]3[C@](C)(CC[C@]12CBr)[C@@H](Br)CC[C@@]3(C)O` [BROMOSPHAEROL], the IC50 in assay [1] is 30 µM; in assay [2], 28 µM; in assay [3], 30 µM; in [4], 34 µM; in assay [5], 35 µM; in assay [6], 23 µM.

`C=C1CC[C@H]2[C@@H](C(C)C)CC[C@@H]2/C=C/[C@](C)(O)CC[C@H]1OC(C)=O` [SPHAEROLLANE I]: the IC50 is 34 µM in assay [1]; 34 µM in assay [2]; 20 µM in assay [3]; 57 µM in assay [4]; 44 µM in assay [5]; 23 µM in assay [6].

For `CC(C)[C@@H]1CC=C[C@H]2[C@H]3[C@@](C)(C=CC(=O)[C@@]3(C)O)CC[C@]12CBr` [SPHAEROCOCCENOL A], the IC50 in assay [1] came to 3.7 µM; in [2], 3 µM; in [3] it was 3.2 µM; in assay [4], 5.2 µM; in assay [5], 3.7 µM; in assay [6], 2.8 µM. Moreover, the inhibition result in assay [9] is “Active”.

Regarding `CC(C)[C@@H]1C=C[C@H](OO)[C@H]2[C@@H]3[C@](C)(O)[C@@H](O)C[C@H](Br)[C@@]3(C)CC[C@@]21CBr`, the IC50 in [1] was 28 µM; in [2] it was 27 µM; in [3], 22 µM; in [4], 28 µM; in [5], 26 µM; in assay [6] it was 28 µM.

On to `CC(C)[C@]1(O)C[C@H]2C[C@H]3[C@H]4[C@](C)(CC[C@@]31C2)[C@@H](Br)CC[C@@]4(C)O`, for which the IC50 in assay [1] was 43 µM; in assay [2], 64 µM; in [3], 75 µM; in [4], > 100 µM; in assay [5], 63 µM; in assay [6], 56 µM.

For `CC(C)[C@@H]1CC[C@@H]2[C@@H](O)[C@H]3[C@](C)(CC[C@]21C)[C@@H](Br)CC[C@@]3(C)O` [NEODOLASTANE], the IC50 came out at 74 µM in assay [1]; 60 µM in assay [2]; 85 µM in assay [3]; 96 µM in assay [4]; 97 µM in assay [5]; 64 µM in [6].

On to `CC(C)[C@@H]1C=C[C@H](OO)[C@H]2[C@@H]3[C@](C)(O)[C@H](O)C[C@H](Br)[C@@]3(C)CC[C@@]21CBr`, for which the IC50 in assay [1] was 30 µM; in assay [2], 25 µM; in [3], 32 µM; in assay [4], 31 µM; in [5], 40 µM; in assay [6], 22 µM.

For `CC(C)[C@@H]1CC=C[C@H]2[C@@H]3[C@](C)(O)[C@H](O)C[C@H](Br)[C@@]3(C)CC[C@]12CBr`, the IC50 in [1] was determined as 26 µM; in [2], 25 µM; in assay [3], 25 µM; in assay [4], 29 µM; in assay [5], 28 µM; in assay [6], 26 µM.
